From patent publication US20220168329A1, “COMBINATORIAL DRUG TREATMENT OF CANCER” (University of Virginia Patent Foundation, priority 2019, published 2022)
Each block holds one compound with its values, some of them ahead of it.

Experiments:
NHEJ/DsRed293B cell line = assay: I-SceI reporter assay, NHEJ; format: cell-based, Human; conditions: Gem 250 nM and/or EPZ015666 500 nM, 24 hours
Protocol: (§1) NHEJ and HR assays to examine the repair efficiency of I-SceI inducible-double strand breaks (DSBs) were performed using NHEJ/DsRed293B and HeLa DR13-9 cell lines, respectively, as previously described with slight modifications. Briefly, 3×10^5 cells were plated on 6-well dishes and 2 μg I-SceI expression vector […] was transfected using Lipofectamine2000 (Invitrogen). 24 hours post-transfection, the indicated amount of gemcitabine and/or EPZ015666 was incubated with cells for 24 hours. The DsRed- and GFP-expressing cells were counted in flow cytometric analysis (BD FACS Calibur and CellQuest Pro) by the FL2 and FL1 channels for NHEJ and HR repair efficiency, respectively. […] To this end, we used I-SceI endonuclease-based genetic reporters where relative efficiency of DSB repair by either pathway could be robustly quantified. […] However, exogenous expression of I-SceI leads to a DSB repair and creation of either dsRED+ or GFP+ cells, which can be quantified to assess relative NHEJ or HDR repair efficiencies by quantifying the percentage of dsRED+ or GFP+ cells upon I-SceI expression. […] We then assessed whether PRMT5 inhibitor alone or in combination with Gem results in differential NHEJ activity. […]

mPanc96 and PANC-1 cells = assay: Crystal violet colony formation assay; format: cell-based, Human
Protocol: Pancreatic cancer cells were seeded in a flat-bottom 12-well plate (Corning) at a density of 1-2×10^3 cells per well. The following day, cells were treated with gemcitabine and EPZ015666 or EPZ015938 for two weeks. Culture media were replaced every week with fresh medium in the presence of drugs. Wells were washed with PBS, then stained for 30 min with crystal violet solution (0.4% crystal violet, 10% formaldehyde, 80% methanol). After staining, wells were washed once with PBS and water. The plate was dried out overnight and imaged using a scanner. Colonies were measured and analyzed with ImageJ (National Institutes of Health).

[1] = tested on: WT and PRMT5 knockout (KO) PDAC cells (mPanc96, PANC-1); assay: MTT cell viability assay, WT vs PRMT5 KO clones; format: cell-based; conditions: Homo sapiens
Protocol: PDX366, mPanc96, and PANC-1 cells were seeded in a flat-bottom 96-well plate (Corning) in triplicate at a density of 1-2×10^3 cells per well. The following day, cells were treated with gemcitabine (GEMZAR; Eli Lilly) and EPZ015666 (GSK3235025; SelleckChem) or EPZ015938 (GSK3326595; ChemieTek) for 4-5 days prior to MTT (3-(4,5-dimethylthiazolyl)-2,5-diphenyltetrazolium bromide) to determine effects of drugs on cell viability. Culture media were replaced with fresh RPMI, which had 10% FBS and 10% MTT (5 mg/mL) and incubated for 4 hours in a humidified (37° C., 5% CO2) incubator. 100 μL MTT solvent (10% SDS in 0.01 M HCl) was added to each well, and cells were incubated overnight. The absorbance was read at 595 nm.
To better study the role of PRMT5 in the cellular response to Gem, we generated multiple single KO clones in two additional pancreatic cancer cell lines (mPanc96 and PANC-1) (FIG. 2A). […] However, the clones with even partial PRMT5 depletion were nearly an order of magnitude more sensitive to Gem compared to wild-type (WT) clones (4-5 μM vs. ˜50 μM IC50) as measured by cell viability assay (FIG. 2B).

mPanc96 cells [2] = assay: Comet assay (DNA strand breaks); format: cell-based, Human; conditions: PRMT5 KO or PRMT5-inhibited cells treated with Gem vs WT and control-treated cells
Protocol: The comet assay measures DNA damage in individual cells. It was performed according to the instructions of the OxiSelect Comet Assay Kit (Cell Biolabs). Briefly, microscope slides were first covered with a normal melting point agarose to create a base layer. Then, 1-2×10^5 cells were embedded into 75 μL of low-melting-point agarose at 37° C. and the gel was cast over the first agarose layer. Then slides were immersed into a lysis buffer and kept for 1 hour at 4° C. After cell lysis, the slides were electrophoresed in alkaline electrophoresis buffer (300 mM NaOH, 1 mM EDTA, pH 13). The slides were then stained with Vista Green DNA dye. Comet tails were measured using Image J.

HeLa DR13-9 cell line = assay: I-SceI reporter assay, homology-directed repair (HDR); format: cell-based, Human; conditions: Gem 250 nM and/or EPZ015666 500 nM, 24 hours
Protocol: as §1

xenograft tumors = assay: γ-H2AX and SDMA levels in extracted tumor tissues (IHC, Western blot); format: in vivo, mice
Protocol: Cells were washed with cold PBS and lysed in RIPA buffer (Cell Signaling Technology). After centrifugation at 14,000 rpm for 15 minutes at 4° C., the supernatants were collected and the protein concentrations were measured using BCA protein assay reagent (BIO-RAD). Subsequently, equal amounts of proteins were separated in NuPAGE 4-12% Bis-Tris gradient gel (Invitrogen #NP0335) and transferred onto nitrocellulose membranes (Invitrogen #B301002). After blocking with 5% milk, the membranes were then probed at 4° C. overnight with various primary antibodies: anti-γ-H2AX (Cell Signaling), anti-phospho-Chk1 (Ser345) (Cell Signaling), anti-phospho-Chk2 (Thr68) (Cell Signaling), anti-PRMT5 (Abcam), anti-RPA1 (Abcam), anti-phospho-RPA2 (S4/S8) (Bethyl Laboratories), anti-RPA2 (Ab-2) (Calbiochem), cleaved caspase-3 (Cell Signaling), and anti-β-actin (Sigma); washed with TBST (20 mM Tris, 150 mM NaCl, 0.1% polysorbate 20; pH 7.6); and incubated with horseradish peroxidase (HRP)-conjugated secondary antibodies (Promega) at room temperature for 1 hour. Finally, after washing with TBST, the antibody-bound membranes were treated with enhanced chemiluminescent Western blot detection reagents (GE Healthcare) and visualized with an x-ray film (GE Healthcare). We also extracted tumors to analyze their morphology and molecular structure through H&E and IHC for selected markers. […] To assess whether the combination treatment abolished PRMT5 function in vivo, we evaluated the overall levels of the γ-H2AX and the symmetric […] of arginine (SDMA) in WT tumors, PRMT5 KO tumors as well as single-agent and combination-treated WT tumors.

[3] = tested on: WT and PRMT5 KO mPanc96 tumors; assay: Xenograft of WT and PRMT5 KO mPanc96 cells treated with Gem; format: in vivo, nude mice; conditions: Gem 50 mg/kg or 100 mg/kg i.p.
Protocol: To develop xenograft tumors, Control sgRNA infected WT cells and PRMT5-KO cells were subcutaneously injected into the dorsal flanks of 8 week-old nude mice, which were obtained from the Jackson Laboratory (Bar Harbor, Me., USA). When the tumors were visible (approximately 30 mm^3 in volume), the mice received respective gemcitabine treatments via intraperitoneal (i.p.) injection. After weekly monitoring, time to appearance of the tumor was recorded, and the tumor volume was measured by caliper. The tumor volume was calculated as follows: volume=longest tumor diameter×(shortest tumor diameter) 2/2. After 35 days of treatment, the mice were euthanized by CO2 inhalation, and the tumor tissues were collected for further analyses. […] Initially, we tested whether tumors formed by WT and PRMT5 KO cells were differentially sensitive to Gem treatment. To be able to better compare the tumors from these two genetic backgrounds, we injected 5×10^5 WT mPanc96 cells in the left flank and the same number of the PRMT5 KO cells in the right flank of the same mouse. This strategy enabled us to compare the two tumors grown in the same mouse. After one week of tumor formation, the mice were randomly divided into three groups where one received control, and the other two received two separate Gem doses (50 mg/kg or 100 mg/kg).

mPanc96 cells [4] = assay: γ-H2AX immunofluorescence staining; format: cell-based, Human
Protocol: Cells grown on glass coverslips (VWR) were rinsed with PBS, and then fixed in 4% formaldehyde for 15 min. The cells were subsequently treated with 0.2% Triton X-100 in PBS for 10 min. After blocking with 2% BSA in PBS containing 5% FBS at RT for 30 minutes, cells were incubated with an appropriate primary antibody γ-H2AX (Cell Signaling) for 2 hours. Then the cells were washed with PBS and incubated for 1 hour with secondary antibody [Alexa Fluor-488 goat anti-mouse immunoglobulin G (IgG) (H+L) conjugate or anti-rabbit IgG (H+L) conjugate (Invitrogen)]. After washing with PBS, the coverslips were dried, and then reversely covered onto slides (Fisher Scientific) by adding mounting medium with 4′,6-diamidino-2-phenylindole dihydrochloride (DAPI) (Vector Laboratories). A LSM-710 confocal microscope (Zeiss) was used to obtain fluorescence images.

PDAC cells = assay: Western blot of DNA damage and cell cycle checkpoint markers and RPA2; format: cell-based, Human; conditions: time-course, KO cells compared to WT cells
Protocol: (§2) Cells were washed with cold PBS and lysed in RIPA buffer (Cell Signaling Technology). After centrifugation at 14,000 rpm for 15 minutes at 4° C., the supernatants were collected and the protein concentrations were measured using BCA protein assay reagent (BIO-RAD). Subsequently, equal amounts of proteins were separated in NuPAGE 4-12% Bis-Tris gradient gel (Invitrogen #NP0335) and transferred onto nitrocellulose membranes (Invitrogen #B301002). After blocking with 5% milk, the membranes were then probed at 4° C. overnight with various primary antibodies: anti-γ-H2AX (Cell Signaling), anti-phospho-Chk1 (Ser345) (Cell Signaling), anti-phospho-Chk2 (Thr68) (Cell Signaling), anti-PRMT5 (Abcam), anti-RPA1 (Abcam), anti-phospho-RPA2 (S4/S8) (Bethyl Laboratories), anti-RPA2 (Ab-2) (Calbiochem), cleaved caspase-3 (Cell Signaling), and anti-β-actin (Sigma); washed with TBST (20 mM Tris, 150 mM NaCl, 0.1% polysorbate 20; pH 7.6); and incubated with horseradish peroxidase (HRP)-conjugated secondary antibodies (Promega) at room temperature for 1 hour. Finally, after washing with TBST, the antibody-bound membranes were treated with enhanced chemiluminescent Western blot detection reagents (GE Healthcare) and visualized with an x-ray film (GE Healthcare).

Pancreatic cancer cells = assay: BrdU incorporation flow cytometry cell cycle analysis; format: cell-based, Human; conditions: Gem 250 nM
Protocol: Pancreatic cancer cells were treated with gemcitabine and EPZ015666 or EPZ015938, incorporated with BrdU (Sigma) for 1 hour and then fixed by 70% ethanol. BrdU staining was performed according to the manufacturer's instructions (BD Biosciences, Franklin Lakes, N.J., USA). Briefly, the fixed cells were washed with PBS and then resuspended in 2 N HCl for 20 min to denature the DNA. After washing with 0.1 M Na2B4O7, pH 8.5, to stop acid denaturation, the cells were resuspended and washed with 180 μL 0.5% polysorbate 20 (Sigma) with 1% normal goat serum (NGS) (Dako, Glostrup, Denmark) in PBS. Then, the cells were incubated with Alexa Fluor 647-conjugated anti-BrdU (mAb) (Invitrogen) for 1 hour at room temperature in the dark. After washing with PBS, the cells were resuspended in 2 μg/mL propidium iodide (PI) (Sigma) in PBS plus RNase, incubated at 37° C. for 30 min in the dark, and then analyzed by FACSCalibur flow cytometer (Becton-Dickinson, San Jose, Calif., USA).

WT and PRMT5 KO cells = assay: Western blot of Caspase-3 cleavage (apoptosis) in WT and PRMT5 KO cells; format: cell-based, Human; conditions: WT vs PRMT5 KO cells, increasing doses (nM)
Protocol: as §2

PRMT5 = assay: Western blot of global SDMA in cells; format: cell-based, Human; conditions: increasing concentrations (nM)
Protocol: as §2

- IC50 ([1]; clones with even partial PRMT5 depletion (PRMT5 KO)): 4 to 5 µM
- IC50 ([1]; wild-type (WT) clones): ~50 µM
SMILES: Nc1ccn([C@@H]2O[C@H](CO)[C@@H](O)C2(F)F)c(=O)n1 [Gem, 2′,2′-difluoro 2′-deoxycytidine]
- NHEJ activity (NHEJ/DsRed293B cell line): significant increase in NHEJ activity
- sensitivity to Gem in longer-term colony formation (mPanc96 and PANC-1 cells; PRMT5 KO clones compared to WT cells): significantly more sensitive
- comet tail length (mPanc96 cells [2]): significantly longer comet tail
- HDR activity (HeLa DR13-9 cell line): significantly inhibits the HDR activity
- γ-H2AX staining (IHC) in tumors (xenograft tumors; PRMT5 KO tumors vs WT tumors treated with Gem): significantly more γ-H2AX staining
- γ-H2AX in tumors (xenograft tumors; Western blot, PRMT5 KO tumors): significantly activated
- tumor volume ([3]; PRMT5 KO tumors): most significant reduction of tumor volumes
- tumor volume ([3]; WT tumors): notable reduction of WT tumors
- time to strong γ-H2AX foci post Gem treatment (mPanc96 cells [4]; PRMT5 KO cells, Gem 250 nM): 4 h
- time to similar levels of γ-H2AX foci (mPanc96 cells [4]; WT cells, same concentration of Gem): 48 to 72 h
- γ-H2AX foci formation levels (mPanc96 cells [4]; over 72 hours, PRMT5 KO vs WT cells, Gem treatment): significantly higher levels of γ-H2AX
- phospho-Chk1, γ-H2AX and phospho-RPA2 activation (PDAC cells): sustained and stronger
- cell cycle position (Pancreatic cancer cells; PRMT5 KO cells compared to WT cells): significantly higher number of G2/M cells
- cell cycle position (Pancreatic cancer cells; WT cells, EPZ015666 500 nM): partial delay in cell cycle with a substantial accumulation of cells in S-phase and partial increases in G2/M cells

SMILES: O=C(NC[C@H](O)CN1CCc2ccccc2C1)c1cc(NC2COC2)ncn1 [EPZ015666]
- NHEJ activity (NHEJ/DsRed293B cell line): significant increase in NHEJ activity
- apoptosis (caspase-3 cleavage) (WT and PRMT5 KO cells): significant apoptosis (caspase-3 cleavage) selectively in WT cells but not in PRMT KO cells
- HDR activity (HeLa DR13-9 cell line): significantly inhibits the HDR activity
- overall SDMA levels in tumors (xenograft tumors; Western blot of tumor tissues): lower overall levels of SDMA
- global SDMA (PRMT5): significantly inhibits global SDMA

SMILES: CC(=O)N1CCC(Nc2cc(C(=O)NC[C@H](O)CN3CCc4ccccc4C3)ncn2)CC1 [EPZ015938]
- growth inhibition activity on colony formation (mPanc96 and PANC-1 cells; single agent, compared with the other PRMT5 inhibitor): substantially more growth inhibition activity
